Results from patent US11691962B2 (eXIthera Pharmaceuticals, Inc., priority 2018, dated 2023).

Target: Factor XIa (Homo sapiens (Human), UniProt P03951)
Test: Factor XIa enzyme inhibition assay (dose response, fluorogenic AMC substrate)
Assay type: biochemical
Settings: read-out: hFXIa IC50
Protocol: • Assay buffer: 20 mM Hepes, pH 7.4; 150 mM NaCl; 0.02% Tween 20 • Compounds: 10 mM stocks in DMSO • Substrate: 20 mM Glp-Pro-Arg-AMC, 25 mg/2.3 mL H2O (store at +4° C.) [Factor XIa, thrombin, and trypsin] • 20 mM Pro-Phe-Arg-AMC (Bachem I-1295), 25 mg/2.2 mL H2O • or Boc-Leu-Gly-Arg-AMC (Bachem I-1105), 25 mg/2.07 mL H2O • (store at +4° C.) [Factor Xa] • Enzyme: Factor XIa; 0.25 μM in 50% glycerol (20 μg/mL) • Trypsin; 0.2 μM in 50% glycerol (4.8 μg/mL) • Thrombin; 0.2 μM in 50% glycerol (7.34 μg/mL) • Factor Xa; 0.2 μM in 50% glycerol (9.2 μg/mL) • These stocks are aliquoted (˜100 μL/aliquot) and stored at −20° C. Methods: • 1. Dilute the substrate to 100 μM in assay buffer (30 μL/6 mL). The enzyme is diluted to 0.5 nM just prior to use (12 μL/6 mL for Factor XIa; 15 μL/6 mL for all of the rest.) • 2. Pipette 50 μL of substrate into each well of the 96 well (12×8) microtiter plate. (Column 1 is used as the 100% activity control and receives no compound, and Column 12 is the blank and receives no enzyme.) Add an additional 46 μL to column 2. • 3. Pipette 4 μL of each compound into the appropriate well in column 2 of the plate (unknowns assayed in triplicate, standard assayed in duplicate). The final compound concentration will be […] of the stock. • 4. Serially two-fold dilute the compound by mixing the sample in column 2, removing 50 μL to the next well (column 3), mix and remove to column 4, etc. until column 11. After mixing column 11, remove 50 μL and discard. • 5. Pipette 50 μL of buffer into column 12. Initiate the reaction by adding 50 μL of enzyme solution to each well of columns 1-11 as rapidly as possible. • 6. Read the plate in a spectrophotometer (SpectraMax) at 30° C., wherein each well is measured every 60 s for 30 min. For Factor Xa assays, each well is measured every 1 min for a total of 60 min. • 7. For Factor XIa assays, the compounds are assayed, in duplicate, at 3 different starting concentrations, 20, 2, and 0.2 μM; 1:10, 1:100, and 1:1000 dilution of 10 mM stock or at 2, 0.2, and 0.02 μM; 1:100, 1:1000, and 1:10,000 dilution of 10 mM stock. Data for each concentration are combined for graphing and data fitting. • 8. Data can be used both for estimation of IC50 and for estimation of Kon.
Potential inhibitors of Factor XIa were evaluated using the following assay.
PyroGlu-Pro-Arg-7-methylaminocourin (AMC), available from CPC Scientific, Inc., is based on the substrate pyro-Glu-Pro-Arg-pNA (S-2366), available from Diapharma Group, Inc. (Columbus, Ohio), wherein the p-nitroanaline group is replaced with 7-methylaminocoumarin (AMC).
The final concentration of the substrate in the assay was 50 μM, and the final concentration of the enzyme was 0.25 nM. Inhibitors were tested by serial dilution over an appropriate range to yield a dose response curve for determination of the inhibitors' IC50 value. The assay mixture was read every minute for 30 minutes in order to generate progress curves. The plates were read in a Spectramax m5 Multimode Plate Reader (Molecular Devices LLC, Sunnyvale, Calif.). Dose response curves were fit to Equation 1 below in which A is the maximum inhibition, B is the minimum inhibition, C is the IC50, and D is the Hill coefficient. Y=[(A−B)/(1+(X/C)^D)]+B (Equation 1)

Chain of Factor XIa (P03951 388-625): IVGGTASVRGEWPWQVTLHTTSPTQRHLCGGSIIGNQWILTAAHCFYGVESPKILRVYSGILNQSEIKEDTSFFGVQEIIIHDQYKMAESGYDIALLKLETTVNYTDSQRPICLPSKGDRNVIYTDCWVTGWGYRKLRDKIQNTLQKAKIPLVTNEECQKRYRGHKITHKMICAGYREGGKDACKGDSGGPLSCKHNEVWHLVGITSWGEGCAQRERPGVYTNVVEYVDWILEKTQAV
Chain of Factor XIa (P03951 19-387 partner): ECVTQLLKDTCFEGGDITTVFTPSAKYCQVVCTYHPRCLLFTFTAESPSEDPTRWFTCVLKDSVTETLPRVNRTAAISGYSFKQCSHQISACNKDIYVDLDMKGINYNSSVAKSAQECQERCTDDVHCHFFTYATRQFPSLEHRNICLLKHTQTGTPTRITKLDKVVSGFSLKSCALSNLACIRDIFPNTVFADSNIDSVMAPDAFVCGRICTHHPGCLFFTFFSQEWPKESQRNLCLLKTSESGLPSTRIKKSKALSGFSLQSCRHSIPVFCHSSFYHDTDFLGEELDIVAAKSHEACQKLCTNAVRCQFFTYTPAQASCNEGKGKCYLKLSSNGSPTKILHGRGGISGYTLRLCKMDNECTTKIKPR

| Structure (SMILES) | IC50 [nM] |
| --- | --- |
| CN(C(=O)[C@@H]1[C@@H](Cc2ccnc(N)c2)C(=O)N1C(=O)NCc1cccc(F)c1)c1cn(C)cn1 [Compound 1-34, (2S,3R)-3-((2-aminopyridin-4-yl)methyl)-N2-(1-methyl-1H-imidazol-4-yl)-N1-((3-fluorophenyl)methyl)-N2-methyl-4-oxoazetidine-1,2-dicarboxamide] | 100 to 1000 |
| CC[C@@H](NC(=O)N1C(=O)[C@H](Cc2ccnc(N)c2)[C@H]1C(=O)N(C)c1ccn(C)n1)c1ccn(C)n1 [Compound 1-42, (2S,3R)-3-((2-aminopyridin-4-yl)methyl)-N2-(1-methyl-1H-pyrazol-3-yl)-N1-((R)-1-(1-methyl-1H-pyrazol-3-yl)propyl)-N2-methyl-4-oxoazetidine-1,2-dicarboxamide] | 100 to 1000 |
| CC[C@@H](NC(=O)N1C(=O)[C@H](Cc2ccnc(N)c2)[C@H]1C(=O)N(C)c1cccs1)c1ccn(C)n1 [Compound 1-49, (2S,3R)-3-((2-aminopyridin-4-yl)methyl)-N2-(thiophen-2-yl)-N1-((R)-1-(1-methyl-1H-pyrazol-3-yl)propyl)-N2-methyl-4-oxoazetidine-1,2-dicarboxamide] | 10 to 100 |
| CC[C@@H](NC(=O)N1C(=O)[C@H](Cc2ccnc(N)c2)[C@H]1C(=O)N(C)c1ccn(C)n1)c1cccs1 [Compound 1-53, (2S,3R)-3-((2-aminopyridin-4-yl)methyl)-N2-(1-methyl-1H-pyrazol-3-yl)-N1-((R)-1-(thiophen-2-yl)propyl)-N2-methyl-4-oxoazetidine-1,2-dicarboxamide] | 10 to 100 |
| CC[C@@H](NC(=O)N1C(=O)[C@H](Cc2ccnc(N)c2)[C@H]1C(=O)N(C)c1ccn(C)n1)c1ccsc1 [Compound 1-54, (2S,3R)-3-((2-aminopyridin-4-yl)methyl)-N2-(1-methyl-1H-pyrazol-3-yl)-N1-((R)-1-(thiophen-3-yl)propyl)-N2-methyl-4-oxoazetidine-1,2-dicarboxamide] | 10 to 100 |

Now from value to compound:

| IC50 [nM] | Structure (SMILES) |
| --- | --- |
| 10 to 100 | CN(C(=O)[C@@H]1[C@@H](Cc2ccnc(N)c2)C(=O)N1C(=O)NCc1cccc(Cl)c1)c1cccs1 [Compound 1-29, (2S,3R)-3-((2-aminopyridin-4-yl)methyl)-N2-(thiophen-2-yl)-N1-((3-chlorophenyl)methyl)-N2-methyl-4-oxoazetidine-1,2-dicarboxamide] |
| 10 to 100 | CN(C(=O)[C@@H]1[C@@H](Cc2ccnc(N)c2)C(=O)N1C(=O)N[C@@H](C1CC1)C(F)(F)F)c1ccn(C)n1 [Compound 1-30, (2S,3R)-3-((2-aminopyridin-4-yl)methyl)-N2-(1-methyl-1H-pyrazol-3-yl)-N1-((S)-1-cyclopropyl-2,2,2-trifluoroethyl)-N2-methyl-4-oxoazetidine-1,2-dicarboxamide] |
| 10 to 100 | CC[C@@H](NC(=O)N1C(=O)[C@H](Cc2ccnc(NC)c2)[C@H]1C(=O)N(C)c1ccnn1C)c1cccc(Cl)c1 [Compound 1-36, (2S,3R)-3-((2-methylaminopyridin-4-yl)methyl)-N2-(1-methyl-1H-pyrazol-5-yl)-N1-((R)-1-(3-chlorophenyl)propyl)-N2-methyl-4-oxoazetidine-1,2-dicarboxamide] |
| 10 to 100 | CCNc1cc(C[C@H]2C(=O)N(C(=O)N[C@H](CC)c3cccc(Cl)c3)[C@@H]2C(=O)N(C)c2ccn(C)n2)ccn1 [Compound 1-39, (2S,3R)-3-((2-ethylaminopyridin-4-yl)methyl)-N2-(1-methyl-1H-pyrazol-3-yl)-N1-((R)-1-(3-chlorophenyl)propyl)-N2-methyl-4-oxoazetidine-1,2-dicarboxamide] |
| 10 to 100 | CC[C@@H](NC(=O)N1C(=O)[C@H](Cc2ccnc(NC)c2)[C@H]1C(=O)N(C)c1cccs1)c1ccccc1 [Compound 1-40, (2S,3R)-3-((2-methylaminopyridin-4-yl)methyl)-N2-(thiophen-2-yl)-N1-((R)-1-phenylpropyl)-N2-methyl-4-oxoazetidine-1,2-dicarboxamide] |
